Laboratory results taken from patent publication US20050241940A1, “Fast perfusion system and patch clamp technique utilizing an interface chamber system having high throughput and low volume requirements” (Wyeth, priority 2004, published 2005).

System: outward potassium currents in DRG neurons
Assay: Whole cell patch clamp recording of outward potassium currents in DRG neurons using the interface chamber
Type: cell-based
Procedure: The current across a patch clamp measuring electrode and cell versus time is shown. Whole cell recording measurements were obtained via conventional methods. The interface chamber was moved to surround the cell as in steps 101-103 above. A measurement of current was recorded while the cell was in a well containing a normal saline (control) solution. The cell was then moved from normal saline to a well containing increasing concentrations (from 0 to 10 mM in increasing increments) of the K^+ channel blocker 4-AP. For each of the measurements, cells were held at −50 mV, stepped with a prepulse to −100 mV for 400 ms and then stepped for the test to +40 mV. After the test pulse, cells were repolarized to −60 mV. Sweeps were obtained every 10 sec, and 5 sweeps were obtained per well. The interface was moved from one well to the next in a short time, such as 2 seconds.
Outward currents due to K^+ flow from the cell is shown. […] The lower current is consistent with the expected blocking effected of the 4-AP. Both the peak current (the spike at the left of graph of each measurement) and the end current (final value of current for each measurement) decreased as the concentration of 4-AP increased.
FIG. 8 illustrates a graph showing the peak current of a fractional block versus the concentration of a test substance according to one example of the invention. […] The dose response curve shown illustrates the ability of this system to measure multiple concentrations of test substance accurately.

[1] = highest concentration tested (10 mM)

## Nc1ccncc1 [4-AP]
As the concentration of 4-AP increased (0 to 10 mM)
  end current (final value of current for each measurement): decreased
As the concentration of 4-AP increased (0 to 10 mM), FIG. 7, shown as fractional block in FIG. 8
  peak current: the peak current decreased as the concentration of 4-AP increased
[1]
  inactivating current remaining: no inactivating current remains
  non-inactivating (persistent) current remaining: significant non-inactivating (persistent) current persists
Whole cell, increasing 4-AP concentrations from 0 to 10 mM, test pulse to +40 mV
  current across the cell membrane (outward K+ current): decreased the current across the cell membrane
